One experiment has as its target T1, aldose reductase (Bos taurus, UniProt P16116).
T1 construct: preparation of the enxyme from bovine lens; from tissue; host or cells: bovine lens
Briefly: aldose reductase inhibition in vitro (modified Hayman and Kinoshita procedure, enzyme from bovine lens). In kind it is biochemical. The note with it: 10^-5 M. The procedure:
(§1) (c) The polyol determination was performed by a modification of the procedure of M. Kraml and L. Cosyns, Clin. Biochem., 2, 373 (1969). Only two minor reagent changes were made: (a) the rinsing mixture was an aqueous 5% (w/v) trichloroacetic acid solution and (b) the stock solution was prepared by dissolving 25 mg of dulcitol in 100 mL of an aqueous trichloroacetic acid solution. [N.B.: For each experiment the average value found in the tissue from rats fed the glucose diet was substracted from the individual values found in the corresponding tissue in galactose-fed rats to obtain the amount of polyol accumulated.] The aldose reductase inhibiting effects of the compounds of formula (I) were also tested by employing an in vitro testing procedure similar to that described by S. Hayman and J.H. Kinoshita, J. Biol. Chem., 240, 877 (1965). In the present case the procedure of Hayman and Kinoshita was modified in that the final chromatography step was omitted in the preparation of the enxyme from bovine lens.

The next experiment relates to dulcitol accumulation. Briefly: lowering of galactitol (dulcitol) accumulation in tissues of galactosemic rats in vivo. The note with it: in diet, 4 days; for % Lowering Galactitol Accumulation In Vivo, % (D): diaphragm; for % Lowering Galactitol Accumulation In Vivo, % (L): lens. Also on record: species or system rat (male, Sprague-Dawley).
Excerpt: The aldose reductase inhibiting property of the compounds of this invention and the utilization of the compounds in preventing, diminishing and alleviating diabetic complications are demonstrable in experiments using galactosemic rats, see Dvornik et al., Science, 182, 1146 (1973). Such experiments are exemplified hereinbelow after the listing of the following general comments pertaining to these experiments:
(a) Four or more groups of six male rats, 50-70 g, Sprague-Dawley strain, were used. The first group, the control group, was fed a mixture of laboratory chow (rodent Laboratory Chow, Purina) and glucose at 20% (w/w %) concentration. An untreated galactosemic group was fed a similar diet in which galactose was substituted for glucose. The third group was fed a diet prepared by mixing a given amount of the test compound with the galactose containing diet. The concentration of galactose in the diet of the treated groups was the same as that for the untreated galactosemic group.
(b) After four days, the animals were killed by euthanization. Both the lens and sciatic nerve were removed, weighed and stored frozen for polyol determination.
as §1
The figures under L, N, and D represent the percentage decrease of dulcitol accumulation in the tissues of the lens, sciatic nerve, and diaphragm, respectively, for treated rats as compared to untreated rats.

The structures appear in SMILES notation.

As to `O=C1c2ccccc2C2(CC(=O)N(N=C3CCCC3)C2=O)C(=O)N1Cc1ccc(Br)cc1F` (stereo not shown) [2-[(4-bromo-2-fluorophenyl)methyl]-1'-(cyclopentylideneamino)spiro[isoquinoline-4(1H),3'-pyrrolidine]-1,2',3,5'(2H)-tetrone], at 10 µM the inhibition on aldose reductase was 0%. For the same compound, in the experiment with dulcitol accumulation (48 mg/kg/day), the “% Lowering Galactitol Accumulation In Vivo, % (D)” value is on record as 95% and the “% Lowering Galactitol Accumulation In Vivo, % (L)” value worked out at 76%.
`CCC(CC)=NN1C(=O)CC2(C(=O)N(Cc3ccc(Br)cc3F)C(=O)c3ccccc32)C1=O` (stereo not shown) [2-[(4-bromo-2-fluorophenyl)methyl]-1'-[(1-ethylpropylidene)amino]spiro[isoquinoline-4(1H),3'-pyrrolidine]-1,2',3,5'(2H)-tetrone]: testing at 10 µM at aldose reductase gave an inhibition of 0%. Also, in the experiment on dulcitol accumulation (51 mg/kg/day), the “% Lowering Galactitol Accumulation In Vivo, % (D)” value came to 93% and the “% Lowering Galactitol Accumulation In Vivo, % (L)” value worked out at 71%.
`CC(C)=NN1C(=O)CC2(C(=O)N(Cc3ccc(Br)cc3F)C(=O)c3ccccc32)C1=O` (stereo not shown) [2-[(4-bromo-2-fluorophenyl)methyl]-1'-[(1-methylethylidene)amino]spiro[isoquinoline-4(1H),3'-pyrrolidine]-1,2',3,5'(2H)-tetrone] displayed an inhibition at 10 µM on aldose reductase of 8%. The “% Lowering Galactitol Accumulation In Vivo, % (D)” value came to 66% with dulcitol accumulation (0.9 mg/kg/day), 86% with dulcitol accumulation (10.8 mg/kg/day) and 95% in the experiment with dulcitol accumulation (56 mg/kg/day). In addition, the figures for the “% Lowering Galactitol Accumulation In Vivo, % (L)” value in the experiment on dulcitol accumulation (10.8 mg/kg/day) and in the experiment on dulcitol accumulation (56 mg/kg/day) were 30% and 53%, respectively.
`O=C1c2ccccc2C2(CC(=O)N(N=C3CCOCC3)C2=O)C(=O)N1Cc1ccc(Br)cc1F` (stereo not shown) [2-[(4-bromo-2-fluorophenyl)methyl]-1'-[(tetrahydro-4H-pyran-4-ylidene)amino]spiro[isoquinoline-4(1H),3'-pyrrolidine]-1,2',3,5'(2H)-tetrone]: on aldose reductase, at 10 µM the inhibition was 36%. Further, in the experiment on dulcitol accumulation (56 mg/kg/day), the “% Lowering Galactitol Accumulation In Vivo, % (D)” value was found to be 89% and the “% Lowering Galactitol Accumulation In Vivo, % (L)” value was determined as 44%.
Compound `CC(C)=NN1C(=O)CC2(C(=O)N(Cc3ccc(Br)cc3F)C(=O)c3ccc(F)cc32)C1=O` (stereo not shown) [2-[(4-bromo-2-fluorophenyl)methyl]-6-fluoro-1'-[(1-methylethylidene)amino]spiro[isoquinoline-4(1H),3'-pyrrolidine]-1,2',3,5'(2H)-tetrone] displayed an inhibition at 10 µM on aldose reductase of 5%. Further, the “% Lowering Galactitol Accumulation In Vivo, % (D)” value with dulcitol accumulation (1.1 mg/kg/day) was 85%. Further, in the experiment on dulcitol accumulation (27 mg/kg/day), the “% Lowering Galactitol Accumulation In Vivo, % (D)” value is 97% and the “% Lowering Galactitol Accumulation In Vivo, % (L)” value was 58%.

The values are drawn from patent US5068332A, “Alkylidene analogs of 1'-aminospiro[isoquinoline-4(1H),3'-pyrrolidine]-1,2',3,5'(2H)-tetrones useful as aldose reductase inhibitors” (American Home Products Corporation, priority 1990, dated 1991).
